Reference: patent US20220409727A1, “Metal Complexes Bearing Bisstyryl-Bipyridine Ligand and Their Use as Photosensitizer Agent in One and Two-Photon Photodynamic Therapy” (Paris Sciences et Lettres, priority 2019, published 2022)
Read-outs that look alike come from different tables or passages of the source.

Legend:
[1] = tested on: HeLa MCTS; experiment: (Photo-)cytotoxicity on 3D multicellular tumor spheroids (ATP, CellTiter-Glo 3D); format: cell-based, human; conditions: for PI (1-Photon): dark vs 1-Photon irradiation (500 nm, 10 J/cm^2); for PI (2-Photon): dark vs 2-Photon irradiation (800 nm, 10 J/cm^2)
Protocol: autoclave. The hot emulsion was transferred into wells (50 μL per well) of a 96 cell culture well plate. The plates were exposed for 3 h to UV irradiation to ensure the sterility and allow the agarose solution to cool down. After this time, the agarose was overlayed with a HeLa cell suspension at a density of 3000 cells per well in 150 μL of media. The MCTS were cultivated and maintained at 37° C. in a cell culture incubator at 37° C. with 5% CO2 atmosphere. The culture media was replaced every two days. Within two-three days MCTs were formed from the cell suspension. The formation as well as integrity, diameter and volume of the MCTs was monitored by an Axio Observer Z1 (Carl Zeiss) phase contrast microscope. The volume was calculated using the following formula: V=4/3πr^3. The luminescence images along the z-axis were captured by a one-(λex=458 nm, λem=600-750 nm) or two-photon (λex=800 nm, λem=600-750 nm) excitation in the z-stack mode with a an LSM 880 (Carl Zeiss) laser scanning confocal microscope equipped with Argon and a Coherent Chameleon 2-Photon laser and a GaAsP detector.
The cytotoxicity of the compounds in 3D multicellular tumor spheroids (MCTS) was assessed by measurement of the ATP concentration. MCTS were treated with increasing concentrations of the compound (2% DMSO, v %) by replacing 50% of the media with drug supplemented media and incubation for 12 h. After this time, the MCTS were divided in three identical groups. The first group was strictly kept in the dark. The second group was exposed to a one-photon irradiation (500 nm, 10 J/cm^2) using a LED and the third group was exposed to a two-photon irradiation (800 nm, 10 J/cm^2) with a section interval of 5 μm using a LSM 880 (Carl Zeiss, Germany) laser scanning confocal microscope equipped with a Coherent Chameleon 2-Photon laser. After the irradiation, all groups were incubated additional 48 h. The ATP concertation was measured using a CellTiter-Glo 3D Cell Viability kit (Promega) by measuring the generated chemiluminescence with an infinite M200 PRO (Tecan) plate reader.

[2] = Singlet oxygen measurement, direct evaluation (1O2 luminescence at 1270 nm); format: physicochemical
Protocol: The samples were prepared in an air saturated CH3CN or D2O solution with an absorbance of 0.2 at 450 nm. This solution was irradiated in fluorescence quartz cuvettes (width 1 cm) using a mounted M450LP1 LED (Thorlabs) whose irradiation, centered at 450 nm, has been focused with aspheric condenser lenses. The intensity of the irradiation has been varied using a T-Cube LED Driver (Thorlabs) and measured with an optical power and energy meter. The emission signal was focused and collected at right angle to the excitation pathway and directed to a Princeton Instruments Acton SP-2300i monochromator. A longpass glass filter was placed in front of the monochromator entrance slit to cut off light at wavelengths shorter than 850 nm. As a detector an EO-817L IR-sensitive liquid nitrogen cooled germanium diode detector (North Coast Scientific Corp.) has been used. The singlet oxygen luminesce at 1270 nm was measured by recording spectra from 1100 to 1400 nm. For the data analysis, the singlet oxygen luminescence peaks at different irradiation intensities were integrated. The resulting areas were plotted against the percentage of the irradiation intensity and the slope of the linear regression calculated. The absorbance of the sample was corrected with an absorbance correction factor. As reference for the measurement Rose Bengal (Φ=76%) (Kochevar, I. E. and Redmond, R. W., 2000) was used and the singlet oxygen quantum yields were calculated using the following formula:
Φsample=Φreference*(Ssample/Sreference)*(Ireference/Isample)
Φ=singlet oxygen quantum yield, S=slope of the linear regression of the plot of the areas of the singlet oxygen luminescence peaks against the irradiation intensity, I=absorbance correction factor, […] of the irradiation source, A=absorbance of the sample at irradiation wavelength.

[3] = tested on: human glioblastoma astrocytoma (U373) cells; experiment: (Photo-)cytotoxicity on 2D cell monolayers, resazurin assay, U373; conditions: for PI (480 nm): U373, dark vs 480 nm (10 min, 3.1 J/cm^2); for PI (540 nm): U373, dark vs 540 nm (40 min, 9.5 J/cm^2); for IC50: compounds 1-3 as chloride salts
Protocol: (§1) The human glioblastoma astrocytoma (U373) cell line was cultured in MEM medium supplemented with 10% FBS, 1% NEAA (non-essential amino-acids) and 1% penicillin/streptomycin. […] The human retinal epithelial cells (RPE-1, non-cancerous cells immortalized with hTERT) were cultured in DMEM-F12 medium supplemented with 10% FBS and 1% penicillin/streptomycin. All cell lines were obtained from the American Type Culture Collection (ATCC) and cultured at 37° C. and 5% CO2. Before an experiment, the cells were passaged three times.
(§2) The cytotoxicity of the compounds was assessed by measuring cell viability using a fluorometric resazurin assay. The cultivated cells were seeded in triplicates in 96 well plates with a density of 4000 cells per well in 100 μL of media. After 24 h, the medium was removed and the cells were treated with increasing concentrations of the compound diluted in cell media achieving a total volume of 200 μL. The cells were incubated with the compound for 4 h. After this time, the media was removed and replaced with 200 μL of fresh medium. For the phototoxicity studies, the cells were exposed to light with an Atlas Photonics LUMOS BIO irradiator. Each well was constantly illuminated with either a 480 nm or 540 nm irradiation. During this time, the temperature was maintained constantly at 37° C. The cells were grown in the incubator for additional 44 h. For the determination of the dark cytotoxicity, the cells were not irradiated and after the medium exchange directly incubated for 44 h. After this time, the medium was replaced with fresh medium containing resazurin with a final concentration of 0.2 mg/mL. After 4 h incubation, the amount of the fluorescent product resorufin was determined upon excitation at 540 nm and measurement its emission at 590 nm using a SpectraMax M2 Microplate Reader (Molecular Devices).
(§3) The obtained data was analyzed with the GraphPad Prism software.

[4] = tested on: mouse colon carcinoma (CT-26) cells; experiment: (Photo-)cytotoxicity on 2D cell monolayers, resazurin assay, CT-26; conditions: for PI (480 nm): CT-26, dark vs 480 nm (10 min, 3.1 J/cm^2); for PI (540 nm): CT-26, dark vs 540 nm (40 min, 9.5 J/cm^2); for IC50: compounds 1-3 as chloride salts
[5] = tested on: human glioblastoma astrocytoma (U373) cells
Protocol: as §1, §2, §3

[6] = tested on: non-cancerous retinal pigment epithelium (RPE-1) cells; experiment: (Photo-)cytotoxicity on 2D cell monolayers, resazurin assay, RPE-1; conditions: for PI (480 nm): RPE-1, dark vs 480 nm (10 min, 3.1 J/cm^2); for PI (540 nm): RPE-1, dark vs 540 nm (40 min, 9.5 J/cm^2);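 as to all read-outs here: cells exposed to compound 4 h, medium exchanged, then irradiated or kept dark, 44 h further growth, viability by resorufin fluorescence (ex 540 nm, em 590 nm)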
Protocol: as §1, §2, §3

[7] = Emission measurement in CH3CN; format: physicochemical; conditions: room temperature, excitation at 355 nm
Protocol: The absorption of the samples was measured with a SpectraMax M2 Spectrometer (Molecular Devices). The emission was measured by irradiation of the sample in fluorescence quartz cuvettes (width 1 cm) using a NT342B Nd-YAG pumped optical parametric oscillator (Ekspla) at 355 nm. Luminescence was focused and collected at right angle to the excitation pathway and directed to a Princeton Instruments Acton SP-2300i monochromator. As a detector, a XPI-Max 4 CCD camera (Princeton Instruments) has been used.

[8] = 1-Photon irradiation (500 nm, 10 J/cm^2), read-out: IC50 1-Photon irradiation (500 nm, 10 J/cm^2)
[9] = 2-Photon irradiation (800 nm, 10 J/cm^2, section interval of 5 μm), read-out: IC50 2-Photon irradiation (800 nm, 10 J/cm^2)
[10] = dark, 12 h incubation, read-out: IC50 dark
[11] = read-out: IC50 480 nm (10 min, 3.1 J/cm^2), U373, irradiation 480 nm (10 min, 3.1 J/cm^2)
[12] = read-out: IC50 dark, U373, dark, 4 h incubation
[13] = read-out: IC50 540 nm (40 min, 9.5 J/cm^2), CT-26, irradiation 540 nm (40 min, 9.5 J/cm^2)
[14] = read-out: IC50 dark, CT-26, dark, 4 h incubation

Structure (SMILES)	IC50 [1, 8] [µM]	IC50 [1, 9] [µM]	PI (1-Photon) [1]	PI (2-Photon) [1]	IC50 [1, 10] [µM]	Singlet oxygen quantum yield, direct 450 nm CH3CN [2] [%]	PI (480 nm) [3]	PI (540 nm) [3]	IC50 [3, 11] [µM]	IC50 [3, 12] [µM]	PI (480 nm) [4]	PI (540 nm) [4]	IC50 [4, 13] [µM]	IC50 [4, 14] [µM]	IC50 [5] [µM]	PI (480 nm) [6]	PI (540 nm) [6]	λem/nm (Emission maximum) [7] [nm]	phototoxicity in HeLa MCTS ([1]; 1 Photon and 2 Photons irradiation, compared with compounds 4-6, 8, 10)
CN(C)c1ccc(/C=C/c2ccnc(-c3cc(/C=C/c4ccc(N(C)C)cc4)ccn3)c2)cc1.CN(C)c1ccc(/C=C/c2ccnc(-c3cc(/C=C/c4ccc(N(C)C)cc4)ccn3)c2)cc1.F[P-](F)(F)(F)(F)F.F[P-](F)(F)(F)(F)F.[Ru+2].c1ccc(-c2ccccn2)nc1 [Compound 4, [Ru(bipy)((E,E′)-4,4′-Bis[p-(N,N-dimethylamino)styryl]-2,2′-bipyridine)2][PF6]2]	78.3 ± 5.1	63 ± 4.2	>1.3	>1.6	> 100	34	>7.0	>5.3	14.3 ± 2.4	> 100	>13.7	>10.4	9.6 ± 1.9	> 100	19 ± 2.8	>9.2	>6.8	703	–
COc1ccc(/C=C/c2ccnc(-c3cc(/C=C/c4ccc(OC)cc4)ccn3)c2)cc1.COc1ccc(/C=C/c2ccnc(-c3cc(/C=C/c4ccc(OC)cc4)ccn3)c2)cc1.F[P-](F)(F)(F)(F)F.F[P-](F)(F)(F)(F)F.[Ru+2].c1ccc(-c2ccccn2)nc1 [Compound 5, [Ru(bipy)((E,E′)-4,4′-Bis[p-methoxystyryl]-2,2′-bipyridine)2][PF6]2]	19.3 ± 2.7	13.4 ± 3.9	>5.2	>7.5	> 100	54	>6.5	>5.6	15.3 ± 2.2	> 100	>19.6	>16.1	6.2 ± 1	> 100	17.8 ± 3.2	>9.8	>7.9	674	–
CN(C)c1ccc(/C=C/c2ccnc(-c3cc(/C=C/c4ccc(N(C)C)cc4)ccn3)c2)cc1.F[P-](F)(F)(F)(F)F.F[P-](F)(F)(F)(F)F.[Ru+2].c1ccc(-c2ccccn2)nc1.c1ccc(-c2ccccn2)nc1 [Compound 6, [Ru(bipy)2((E,E′)-4,4′-Bis[p-(N,N-dimethylamino)styryl]-2,2′-bipyridine)][PF6]2]	33.8 ± 3.4	26.5 ± 2.9	>8.9	>11.3	> 300	46	>12.0	>9.3	8.3 ± 1.1	> 100	>41.7	>32.3	3.1 ± 0.3	> 100	10.7 ± 1.9	>13.7	>12.3	697	–
CN(C)c1ccc(/C=C/c2ccnc(-c3cc(/C=C/c4ccc(N(C)C)cc4)ccn3)c2)cc1.F[P-](F)(F)(F)(F)F.F[P-](F)(F)(F)(F)F.[Ru+2].c1cnc2c(c1)ccc1cccnc12.c1cnc2c(c1)ccc1cccnc12 [Compound 8, [Ru(phen)2((E,E′)-4,4′-Bis[p-(N,N-dimethylamino)styryl]-2,2′-bipyridine)][PF6]2]	32.6 ± 2.5	27.8 ± 3.1	>9.2	>10.8	> 300	59	>8.5	>7.5	11.7 ± 1.5	> 100	>12.2	>12.8	7.8 ± 0.9	> 100	13.3 ± 2.4	>10.9	>6.4	698	–
COc1ccc(/C=C/c2ccnc(-c3cc(/C=C/c4ccc(OC)cc4)ccn3)c2)cc1.F[P-](F)(F)(F)(F)F.F[P-](F)(F)(F)(F)F.[Ru+2].c1cnc2c(c1)ccc1cccnc12.c1cnc2c(c1)ccc1cccnc12 [Compound 9, [Ru(phen)2((E,E′)-4,4′-Bis[p-methoxystyryl]-2,2′-bipyridine)][PF6]2]	7.5 ± 0.2	1.2 ± 0.3	>40.0	>250.0	> 300	75	>40.0	>47.6	2.5 ± 0.9	> 100	>90.9	>111.1	0.9 ± 0.4	> 100	2.1 ± 0.7	>41.7	>47.6	663	much higher phototoxicity
CN(C)c1ccc(/C=C/c2ccnc(-c3cc(/C=C/c4ccc(N(C)C)cc4)ccn3)c2)cc1.F[P-](F)(F)(F)(F)F.F[P-](F)(F)(F)(F)F.[Ru+2].c1ccc(-c2ccnc3c2ccc2c(-c4ccccc4)ccnc23)cc1.c1ccc(-c2ccnc3c2ccc2c(-c4ccccc4)ccnc23)cc1 [Compound 10, [Ru(4,7-Diphenyl-1,10-phenanthroline)2((E,E′)-4,4′-Bis[p-(N,N-dimethylamino)styryl]-2,2′-bipyridine)][PF6]2]	8.9 ± 0.7	3.1 ± 0.6	3.1	9.0	27.8 ± 3.6	51	7.6	6.5	1.8 ± 0.3	13.7 ± 1.1	4.0	4.7	1.1 ± 0.4	5.2 ± 0.8	2.1 ± 0.4	8.7	7.4	698	–
